In publication PMC9541843, “N‐terminal alterations turn the gut hormone GLP‐2 into an antagonist with gradual loss of GLP‐2 receptor selectivity towards more GLP‐1 receptor interaction” (British Journal of Pharmacology, 2022):
Where two headings read alike, the source gives them in different places. Peptide text beside a SMILES is read from it. * marks the point of attachment. C16 diacid = O=C(O)CCCCCCCCCCCCCCC(=O)*

Assays:
human GLP‐2R [1] = biological target: T1, human GLP‐2R (Homo sapiens, UniProt O95838); assay: Schild plot analysis of cAMP activation curve of GLP‐2; assay type: cell-based; set-up: host or cells: COS-7 (transient, calcium phosphate); conditions: COS‐7 cells, n = 5 in duplicate, read-out: Ki from Schild plot (pA2) (converted)
T1 sequence (O95838 1-553): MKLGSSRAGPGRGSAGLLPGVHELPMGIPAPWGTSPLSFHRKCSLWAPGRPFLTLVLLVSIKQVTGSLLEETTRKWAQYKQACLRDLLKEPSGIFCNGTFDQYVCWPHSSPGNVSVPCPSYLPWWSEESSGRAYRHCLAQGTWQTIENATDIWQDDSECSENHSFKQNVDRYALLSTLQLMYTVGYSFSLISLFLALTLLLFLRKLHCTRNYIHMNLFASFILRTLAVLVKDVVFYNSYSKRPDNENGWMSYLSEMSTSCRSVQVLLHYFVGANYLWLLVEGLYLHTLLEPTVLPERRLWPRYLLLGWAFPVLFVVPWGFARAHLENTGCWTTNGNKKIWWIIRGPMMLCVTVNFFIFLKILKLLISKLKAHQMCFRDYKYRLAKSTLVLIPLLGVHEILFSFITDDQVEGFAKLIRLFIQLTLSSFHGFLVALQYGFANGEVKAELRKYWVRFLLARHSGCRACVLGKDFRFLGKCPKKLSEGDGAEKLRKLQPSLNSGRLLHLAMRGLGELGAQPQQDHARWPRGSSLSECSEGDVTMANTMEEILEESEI
Protocol: Statistical significance was accepted at P < 0.05.
We used a Schild plot approach, where we examined their ability to right‐shift the cAMP activation curve of native GLP‐2 (Figure 4a–d). For GLP‐2(2‐33), GLP‐(3‐33) and GLP‐2(4‐33), all having intrinsic activity, the Schild plot analysis was based on an equieffective DR (the concentrations at 60% of Emax). For GLP‐2(3‐33)[D3A], with no intrinsic activity, the Schild plot analysis was conducted based on the shift in the EC50 values for GLP‐2 with and without GLP‐2(3‐33)[D3A] as previously described (Sparre‐Ulrich et al., [2017]).

human GLP‐2R [2] = biological target: T1, human GLP‐2R; assay: cAMP accumulation, inhibition of GLP‐2‐induced activation; conditions: for Inhibition of GLP‐2‐induced cAMP at the human GLP‐2R: at 1 μM peptide (highest tested concentration), COS‐7 cells
human GLP‐2R [3] = biological target: T1, human GLP‐2R; assay: cAMP accumulation, agonism (HitHunter cAMP assay); conditions: for Emax: COS-7, read-out: cAMP activation Emax ± SEM
human GLP‐1R = human GLP‐1R (Homo sapiens, UniProt P43220); assay: cAMP accumulation, inhibition of GLP‐1‐mediated response (selectivity); conditions: for inhibition at 1 µM: COS-7, read-out: Inhibition of GLP‐1‐mediated cAMP response at the human GLP‐1R
Chain of human GLP‐1R (P43220 24-463): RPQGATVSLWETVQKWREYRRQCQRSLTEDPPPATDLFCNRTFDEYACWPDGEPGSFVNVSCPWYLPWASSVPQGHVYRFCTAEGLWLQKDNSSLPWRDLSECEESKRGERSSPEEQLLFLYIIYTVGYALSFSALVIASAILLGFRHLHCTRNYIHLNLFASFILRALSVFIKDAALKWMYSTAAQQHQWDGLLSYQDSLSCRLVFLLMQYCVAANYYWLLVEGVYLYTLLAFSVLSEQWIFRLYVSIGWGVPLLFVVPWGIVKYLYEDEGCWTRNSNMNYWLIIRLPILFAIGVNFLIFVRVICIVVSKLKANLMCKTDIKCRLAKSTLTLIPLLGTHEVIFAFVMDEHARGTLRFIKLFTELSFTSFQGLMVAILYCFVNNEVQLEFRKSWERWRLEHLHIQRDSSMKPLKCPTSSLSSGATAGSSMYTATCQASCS

human GLP‐2R [4] = biological target: T1, human GLP‐2R; assay: cell-based; conditions: SEM
Protocol: After incubation, the cells were washed twice in 400 μl per well ice‐cold binding buffer and lysed using 500 μl per well of 200 mM NaOH with 1% SDS for 30 min. The samples were counted using the Wizard Gamma Counter (PerkinElmer, Waltham, MA).

SMILES | Ki (human GLP‐2R [1]) | IC50 (human GLP‐2R [2]) | Emax (human GLP‐2R [3]; SEM) | inhibition at 1 µM (human GLP‐1R) | IC50 (human GLP‐2R [4]) | EC50 (human GLP‐2R [3]; SEM) | Inhibition of GLP‐2‐induced cAMP at the human GLP‐2R (human GLP‐2R [2]) | IC50 (human GLP‐1R) | Emax (human GLP‐2R [3]) | EC50 (human GLP‐2R [3]) | IC50 (human GLP‐2R [2]; SEM)
CC[C@H](C)[C@H](NC(=O)[C@H](Cc1ccccc1)NC(=O)[C@H](CC(=O)O)NC(=O)[C@H](CCCNC(=N)N)NC(=O)[C@H](C)NC(=O)[C@H](C)NC(=O)[C@H](CC(C)C)NC(=O)[C@H](CC(N)=O)NC(=O)[C@H](CC(=O)O)NC(=O)[C@H](CC(C)C)NC(=O)[C@@H](NC(=O)[C@@H](NC(=O)[C@H](CC(N)=O)NC(=O)[C@H](CCSC)NC(=O)[C@H](CCC(=O)O)NC(=O)[C@H](CC(=O)O)NC(=O)[C@H](CO)NC(=O)[C@H](Cc1ccccc1)NC(=O)[C@H](CO)NC(=O)CNC(=O)[C@H](C)N)[C@@H](C)O)[C@@H](C)CC)C(=O)N[C@@H](CC(N)=O)C(=O)N[C@@H](Cc1c[nH]c2ccccc12)C(=O)N[C@@H](CC(C)C)C(=O)N[C@H](C(=O)N[C@@H](CCC(N)=O)C(=O)N[C@H](C(=O)N[C@@H](CCCCN)C(=O)N[C@H](C(=O)N[C@H](C(=O)N[C@@H](CC(=O)O)C(=O)O)[C@@H](C)O)[C@@H](C)CC)[C@@H](C)O)[C@@H](C)CC [GLP‐2(3‐33)[D3A]] (H-AGSFSDEMNTILDNLAARDFINWLIQTKITD-OH) | 40 nM | 162 nM | – | – | – | – | – | – | – | – | –
CC[C@H](C)[C@H](NC(=O)[C@H](Cc1ccccc1)NC(=O)[C@H](CC(=O)O)NC(=O)[C@H](CCCNC(=N)N)NC(=O)[C@H](C)NC(=O)[C@H](C)NC(=O)[C@H](CC(C)C)NC(=O)[C@H](CC(N)=O)NC(=O)[C@H](CC(=O)O)NC(=O)[C@H](CC(C)C)NC(=O)[C@@H](NC(=O)[C@@H](NC(=O)[C@H](CC(N)=O)NC(=O)[C@H](CCSC)NC(=O)[C@H](CCC(=O)O)NC(=O)[C@H](CC(=O)O)NC(=O)[C@H](CO)NC(=O)[C@H](Cc1ccccc1)NC(=O)[C@H](CO)NC(=O)CNC(=O)[C@@H](N)CC(=O)O)[C@@H](C)O)[C@@H](C)CC)C(=O)N[C@@H](CC(N)=O)C(=O)N[C@@H](Cc1c[nH]c2ccccc12)C(=O)N[C@@H](CC(C)C)C(=O)N[C@H](C(=O)N[C@@H](CCC(N)=O)C(=O)N[C@H](C(=O)N[C@@H](CCCCN)C(=O)N[C@H](C(=O)N[C@H](C(=O)N[C@@H](CC(=O)O)C(=O)O)[C@@H](C)O)[C@@H](C)CC)[C@@H](C)O)[C@@H](C)CC [GLP‐2(3‐33)] (H-DGSFSDEMNTILDNLAARDFINWLIQTKITD-OH) | – | – | 21 ± 2.2% | 30 to 38% | – | – | – | – | – | – | –
CC[C@H](C)[C@H](NC(=O)[C@H](Cc1ccccc1)NC(=O)[C@H](CC(=O)O)NC(=O)[C@H](CCCNC(=N)N)NC(=O)[C@H](C)NC(=O)[C@H](C)NC(=O)[C@H](CC(C)C)NC(=O)[C@H](CC(N)=O)NC(=O)[C@H](CC(=O)O)NC(=O)[C@H](CC(C)C)NC(=O)[C@@H](NC(=O)[C@@H](NC(=O)[C@H](CC(N)=O)NC(=O)[C@H](CCSC)NC(=O)[C@H](CCC(=O)O)NC(=O)[C@H](CC(=O)O)NC(=O)[C@H](CO)NC(=O)[C@H](Cc1ccccc1)NC(=O)[C@H](CO)NC(=O)CNC(=O)[C@H](CC(=O)O)NC(=O)[C@H](C)N)[C@@H](C)O)[C@@H](C)CC)C(=O)N[C@@H](CC(N)=O)C(=O)N[C@@H](Cc1c[nH]c2ccccc12)C(=O)N[C@@H](CC(C)C)C(=O)N[C@H](C(=O)N[C@@H](CCC(N)=O)C(=O)N[C@H](C(=O)N[C@@H](CCCCN)C(=O)N[C@H](C(=O)N[C@H](C(=O)N[C@@H](CC(=O)O)C(=O)O)[C@@H](C)O)[C@@H](C)CC)[C@@H](C)O)[C@@H](C)CC [GLP‐2(2‐33)] (H-ADGSFSDEMNTILDNLAARDFINWLIQTKITD-OH) | 40 nM | 174 nM | 20 ± 3.2% | 30 to 38% | 7.94 nM | 7.94 nM | – | – | – | – | –
CC[C@H](C)[C@H](NC(=O)[C@H](Cc1ccccc1)NC(=O)[C@H](CC(=O)O)NC(=O)[C@H](CCCNC(=N)N)NC(=O)[C@H](C)NC(=O)[C@H](C)NC(=O)[C@H](CC(C)C)NC(=O)[C@H](CC(N)=O)NC(=O)[C@H](CC(=O)O)NC(=O)[C@H](CC(C)C)NC(=O)[C@@H](NC(=O)[C@@H](NC(=O)[C@H](CC(N)=O)NC(=O)[C@H](CCSC)NC(=O)[C@H](CCC(=O)O)NC(=O)[C@H](CC(=O)O)NC(=O)[C@H](CO)NC(=O)[C@H](Cc1ccccc1)NC(=O)[C@H](CO)NC(=O)CCCCCCCCCCCCCCC(=O)O)[C@@H](C)O)[C@@H](C)CC)C(=O)N[C@@H](CC(N)=O)C(=O)N[C@@H](Cc1c[nH]c2ccccc12)C(=O)N[C@@H](CC(C)C)C(=O)N[C@H](C(=O)N[C@@H](CCC(N)=O)C(=O)N[C@H](C(=O)N[C@@H](CCCCN)C(=O)N[C@H](C(=O)N[C@H](C(=O)N[C@@H](CC(=O)O)C(=O)O)[C@@H](C)O)[C@@H](C)CC)[C@@H](C)O)[C@@H](C)CC [GLP‐2(5‐33)(C16‐diacid/5)] ({C16 diacid}-SFSDEMNTILDNLAARDFINWLIQTKITD-OH) | – | 12.3 nM | – | 67% | – | – | 93% | 40 nM | – | – | –
CC[C@H](C)[C@H](NC(=O)[C@H](Cc1ccccc1)NC(=O)[C@H](CC(=O)O)NC(=O)[C@H](CCCN=C(N)N)NC(=O)[C@H](C)NC(=O)[C@H](C)NC(=O)[C@H](CC(C)C)NC(=O)[C@H](CC(N)=O)NC(=O)[C@H](CC(=O)O)NC(=O)[C@H](CC(C)C)NC(=O)[C@@H](NC(=O)[C@@H](NC(=O)[C@H](CC(N)=O)NC(=O)[C@H](CCSC)NC(=O)[C@H](CCC(=O)O)NC(=O)[C@H](CC(=O)O)NC(=O)[C@H](CO)NC(=O)[C@H](Cc1ccccc1)NC(=O)[C@H](CO)NC(=O)CNC(=O)[C@@H](N)CC(=O)O)[C@@H](C)O)[C@@H](C)CC)C(=O)N[C@@H](CC(N)=O)C(=O)N[C@@H](Cc1c[nH]c2ccccc12)C(=O)N[C@@H](CC(C)C)C(=O)N[C@H](C(=O)N[C@@H](CCC(N)=O)C(=O)N[C@H](C(=O)N[C@@H](CCCCN)C(=O)N[C@H](C(=O)N[C@H](C(=O)N[C@@H](CC(=O)O)C(=O)O)[C@@H](C)O)[C@@H](C)CC)[C@@H](C)O)[C@@H](C)CC [GLP‐2(3‐33)] (H-DGSFSDEMNTILDNLAARDFINWLIQTKITD-OH) | 126 nM | 204 nM | – | – | 7.94 nM | 25.1 nM | – | – | – | – | –
CC[C@H](C)[C@H](NC(=O)[C@H](Cc1ccccc1)NC(=O)[C@H](CC(=O)O)NC(=O)[C@H](CCCNC(=N)N)NC(=O)[C@H](C)NC(=O)[C@H](C)NC(=O)[C@H](CC(C)C)NC(=O)[C@H](CC(N)=O)NC(=O)[C@H](CC(=O)O)NC(=O)[C@H](CC(C)C)NC(=O)[C@@H](NC(=O)[C@@H](NC(=O)[C@H](CC(N)=O)NC(=O)[C@H](CCSC)NC(=O)[C@H](CCC(=O)O)NC(=O)[C@H](CC(=O)O)NC(=O)[C@H](CO)NC(=O)[C@H](Cc1ccccc1)NC(=O)[C@H](CO)NC(=O)CNC(=O)[C@H](CC(=O)O)NC(=O)CCCCCCCCCCCCCCC(=O)O)[C@@H](C)O)[C@@H](C)CC)C(=O)N[C@@H](CC(N)=O)C(=O)N[C@@H](Cc1c[nH]c2ccccc12)C(=O)N[C@@H](CC(C)C)C(=O)N[C@H](C(=O)N[C@@H](CCC(N)=O)C(=O)N[C@H](C(=O)N[C@@H](CCCCN)C(=O)N[C@H](C(=O)N[C@H](C(=O)N[C@@H](CC(=O)O)C(=O)O)[C@@H](C)O)[C@@H](C)CC)[C@@H](C)O)[C@@H](C)CC [GLP‐2(3‐33)(C16‐diacid/3)] ({C16 diacid}-DGSFSDEMNTILDNLAARDFINWLIQTKITD-OH) | – | 7.9 nM | – | 91% | – | – | 87% | 50 nM | 25% | – | –
CC[C@H](C)[C@H](NC(=O)[C@H](Cc1ccccc1)NC(=O)[C@H](CC(=O)O)NC(=O)[C@H](CCCNC(=N)N)NC(=O)[C@H](C)NC(=O)[C@H](C)NC(=O)[C@H](CC(C)C)NC(=O)[C@H](CC(N)=O)NC(=O)[C@H](CC(=O)O)NC(=O)[C@H](CC(C)C)NC(=O)[C@@H](NC(=O)[C@@H](NC(=O)[C@H](CC(N)=O)NC(=O)[C@H](CCSC)NC(=O)[C@H](CCC(=O)O)NC(=O)[C@H](CC(=O)O)NC(=O)[C@H](CO)NC(=O)[C@H](Cc1ccccc1)NC(=O)[C@H](CO)NC(=O)CN)[C@@H](C)O)[C@@H](C)CC)C(=O)N[C@@H](CC(N)=O)C(=O)N[C@@H](Cc1c[nH]c2ccccc12)C(=O)N[C@@H](CC(C)C)C(=O)N[C@H](C(=O)N[C@@H](CCC(N)=O)C(=O)N[C@H](C(=O)N[C@@H](CCCCN)C(=O)N[C@H](C(=O)N[C@H](C(=O)N[C@@H](CC(=O)O)C(=O)O)[C@@H](C)O)[C@@H](C)CC)[C@@H](C)O)[C@@H](C)CC [GLP‐2(4‐33)] (H-GSFSDEMNTILDNLAARDFINWLIQTKITD-OH) | 6.3 nM | – | 17 ± 2.6% | – | 6.31 nM | – | – | – | – | 158 nM | 79.4 nM
